Data from US9346815B2, “5-chloro-2-difluoromethoxyphenyl pyrazolopyrimidine compounds, compositions and methods of use thereof” (Genentech, Inc., priority 2014, dated 2016).

Columns and labels:
[1] = target: isolated recombinant JAK2 kinase domain (Homo sapiens (Human), UniProt O60674); assay: JAK2 enzyme assay (Caliper LabChip, peptide phosphorylation); type: biochemical; conditions: 25 μM ATP
[2] = target: isolated recombinant JAK1 kinase domain (Homo sapiens (Human), UniProt P23458); assay: JAK1 enzyme assay (Caliper LabChip, peptide phosphorylation); type: biochemical; conditions: isolated recombinant JAK1 kinase domain, 25 μM ATP
[3] = test system: JAK1-dependent STAT6 phosphorylation downstream of IL-13 stimulation in TF-1 human erythroleukemia cells; assay: JAK1 pathway assay in TF-1 cells (IL-13-pSTAT6, MSD); type: cell-based; conditions: Homo sapiens, TF-1, TF-1 cells, read-out: IL13-pSTAT6 EC50_TF-1
Method in brief: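 Cells were preincubated with compounds (0.2% DMSO) for 30 min (TF-1, GM-CSF-starved overnight, serum-free OptiMEM, 300,000 cells/well) or 1 h (BEAS-2B, complete medium, 100,000 cells/well) at 37 °C.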

isolated recombinant JAK2 kinase domain, sequence (O60674 849-1124): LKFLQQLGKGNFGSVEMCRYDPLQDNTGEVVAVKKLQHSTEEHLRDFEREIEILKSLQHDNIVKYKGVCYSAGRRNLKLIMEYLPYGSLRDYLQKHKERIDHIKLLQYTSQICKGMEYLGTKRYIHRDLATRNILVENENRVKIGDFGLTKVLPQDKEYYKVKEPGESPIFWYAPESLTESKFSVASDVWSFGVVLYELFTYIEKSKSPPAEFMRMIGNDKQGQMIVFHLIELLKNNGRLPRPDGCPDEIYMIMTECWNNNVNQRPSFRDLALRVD
isolated recombinant JAK1 kinase domain, sequence (P23458 875-1153): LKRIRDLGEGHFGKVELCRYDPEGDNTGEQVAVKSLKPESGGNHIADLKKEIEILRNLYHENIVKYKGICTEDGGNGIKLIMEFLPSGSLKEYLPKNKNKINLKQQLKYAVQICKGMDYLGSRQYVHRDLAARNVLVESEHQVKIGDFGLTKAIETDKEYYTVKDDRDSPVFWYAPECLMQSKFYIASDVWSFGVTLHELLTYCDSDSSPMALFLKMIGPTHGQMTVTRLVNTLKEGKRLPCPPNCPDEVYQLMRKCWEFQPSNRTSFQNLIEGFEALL

Row | SMILES | Ki [1] [nM] | Ki [2] [nM] | EC50 [3] [nM]
1 | O=C(Nc1cn(CC(=O)N2CCC(NCCc3ccc(Cl)cc3)CC2)nc1-c1cc(Cl)ccc1OC(F)F)c1cnn2cccnc12 [Example 92, N-[3-[5-chloro-2-(difluoromethoxy)phenyl]-1-[2-[4-[2-(4-chlorophenyl)ethylamino]-1-piperidyl]-2-oxo-ethyl]pyrazol-4-yl]pyrazolo[1,5-a]pyrimidine-3-carboxamide] | 2.03 | 0.92 | 55.6
2 | O=C(Nc1cn(CC(=O)N2C[C@H]3CN(CCCOC(=O)C4CCC4)C[C@H]3C2)nc1-c1cc(Cl)ccc1OC(F)F)c1cnn2cccnc12 [Example 55, 3-[(3aS,6aR)-5-[2-[3-[5-chloro-2-(difluoromethoxy)phenyl]-4-(pyrazolo[1,5-a]pyrimidine-3-carbonylamino)pyrazol-1-yl]acetyl]-1,3,3a,4,6,6a-hexahydropyrrolo[3,4-c]pyrrol-2-yl]propyl cyclobutanecarboxylate] | 0.72 | 0.85 | 21
3 | CN(CCOc1ccc(Br)cc1)C1CCN(C(=O)Cn2cc(NC(=O)c3cnn4cccnc34)c(-c3cc(Cl)ccc3OC(F)F)n2)CC1 [Example 104, N-[1-[2-[4-[2-(4-bromophenoxy)ethyl-methyl-amino]-1-piperidyl]-2-oxo-ethyl]-3-[5-chloro-2-(difluoromethoxy)phenyl]pyrazol-4-yl]pyrazolo[1,5-a]pyrimidine-3-carboxamide] | 2.11 | 0.93 | 20.2
4 | Nc1nn2cccnc2c1C(=O)Nc1cn(C2CCN(CCOCc3ccccc3)CC2)nc1-c1cc(Cl)ccc1OC(F)F [Example 180, 2-amino-N-[1-[1-(2-benzyloxyethyl)-4-piperidyl]-3-[5-chloro-2-(difluoromethoxy)phenyl]pyrazol-4-yl]pyrazolo[1,5-a]pyrimidine-3-carboxamide] | 0.35 | 1.25 | 38.4
5 | CN1C[C@@H]2[C@H](C1)[C@H](CO)N(C(=O)Cn1cc(NC(=O)c3cnn4cccnc34)c(-c3cc(Cl)ccc3OC(F)F)n1)[C@@H]2c1ccccc1 [Example 37, N-[1-[2-[(3aS,4S,6R,6aR)-6-(hydroxymethyl)-2-methyl-4-phenyl-1,3,3a,4,6,6a-hexahydropyrrolo[3,4-c]pyrrol-5-yl]-2-oxo-ethyl]-3-[5-chloro-2-(difluoromethoxy)phenyl]pyrazol-4-yl]pyrazolo[1,5-a]pyrimidine-3-carboxamide] | 0.78 | 1.1 | 11.8
6 | CC(=O)N1CCC(CN2CCC(n3cc(NC(=O)c4c(N)nn5cccnc45)c(-c4cc(Cl)ccc4OC(F)F)n3)CC2)CC1 [Example 173, N-[1-[1-[(1-acetyl-4-piperidyl)methyl]-4-piperidyl]-3-[5-chloro-2-(difluoromethoxy)phenyl]pyrazol-4-yl]-2-amino-pyrazolo[1,5-a]pyrimidine-3-carboxamide] | 0.13 | 0.58 | 4.8
7 | CCNC(=O)CCCN1CCC(n2cc(NC(=O)c3cnn4cccnc34)c(-c3cc(Cl)ccc3OC(F)F)n2)CC1 [Example 156, N-[3-[5-chloro-2-(difluoromethoxy)phenyl]-1-[1-[4-(ethylamino)-4-oxo-butyl]-4-piperidyl]pyrazol-4-yl]pyrazolo[1,5-a]pyrimidine-3-carboxamide] | 0.19 | 1.53 | 31.8
8 | Nc1nn2cccnc2c1C(=O)Nc1cn(C2CCN(CCCCOCCc3ccccc3)CC2)nc1-c1cc(Cl)ccc1OC(F)F [Example 181, 2-amino-N-[3-[5-chloro-2-(difluoromethoxy)phenyl]-1-[1-[4-(2-phenylethoxy)butyl]-4-piperidyl]pyrazol-4-yl]pyrazolo[1,5-a]pyrimidine-3-carboxamide] | 0.48 | 1.99 | 95.6
